Structures are written as SMILES.

Data on one compound can be found in patent US9408826B2, “Isoflavone anti-viral compounds” (Kineta, Inc., priority 2010, dated 2016).

The subject of the assay is Murine Encephalomyocarditis virus (EMCV). Put plainly: EMCV antiviral assay (cell viability by MTS). Conditions: Huh7 cells; for Cell viability post-infection: EMCV 250 pfu, MTS. Format: cell-based. On the procedure: Huh7 cells were grown under normal growth conditions and treated with the indicated amount of drug in media containing 0.5% DMSO. The cells were grown in the presence of drug for 5 hours and then infected with 250 pfu Murine Encephalomyocarditis virus (EMCV) for example obtained from ATCC #VR-129B. Infected cells were grown for an additional 18 hours and then cell viability was measured using an MTS assay. Negative control cells were treated with buffer alone containing 0.5% DMSO. Interferon treatment was used as a positive control for virus inhibition and was added similar to drug treatments at a final concentration of 10 IU/mL for example Interferon-α: Intron A, from Schering-Plough. Cell viability was measured using an MTS assay such as; CellTiter 96® AQueous One Solution Cell Proliferation Assay (MTS), from Promega #G3580.

Regarding `CS(=O)(=O)Oc1ccc2c(=O)c(-c3ccc(Br)cc3)coc2c1` [KIN101, [3-(4-bromophenyl)-4-oxo-chromen-7-yl] methanesulfonate], the “Protection of cell viability following infection with EMCV (in words)” value is listed as “protective of cell viability”. This compound returned a Cell viability post-infection (5 μM drug) of about 0.7. Also, the Cell viability post-infection (10 μM drug) is listed as about 1.2. Under “20 μM drug”, this compound returned a Cell viability post-infection of about 1.45.
